Test results from paper PMC6155683, “Pharmacokinetics Studies of 12 Alkaloids in Rat Plasma after Oral Administration of Zuojin and Fan-Zuojin Formulas” (Molecules : A Journal of Synthetic Chemistry and Natural …, 2017).
Read-outs that look alike come from different tables or passages of the source.

What was measured:
[1] = Stability of analytes in rat plasma under storage conditions; type: physicochemical; details: n = 6; for Stability RE, 3 freeze-thaw cycles / Stability RE, 30 days at −20 °C: rat plasma; for Stability RE, processed samples' stability: room temperature 24 h
Procedure: The stabilities of analytes in plasma were assessed by analyzing the QC samples at three concentration levels under the following storage conditions: after three freeze (−20 °C)-thaw (room temperature) cycles; stored at −20 °C for 30 days, and comparing the results with those of freshly prepared QC samples. Stabilities of the processed samples at room temperature for 24 h were also assessed.

[2] = Dose modified systemic exposure (AUC0→∞/D, Cmax/D)
Procedure: Because the alkaloids content in ZJ and FZJ were no longer linear with the proportion of CR and EF after extraction process, AUC0→∞/D (ratio of AUC0→∞ and dose) and Cmax/D (ratio of Cmax and dose) were calculated to estimate the dose modified systemic exposure levels of the 12 alkaloids (Table 3). […] Physicochemical properties of these alkaloids had been calculated in silico to predict their human colon adenocarcinoma cell (Caco-2) permeability according to the three-property based rule (3PRule). Polar surface area (PSA), logarithm of the n-octanol/water distribution coefficient (LogD), molecular weight (MW), hydrogen bond donors (HBD), hydrogen bond acceptors (HBA), number of free rotatable bonds (NRB) and molar solubility (S) of the alkaloids were retrieved from SciFinder® (American Chemical Society).

[3] = PK study of the 12 alkaloids in rat plasma after oral administration of ZJ and FZJ extract (LC–MS/MS); type: in vivo; details: for AUC(0-t) / AUC(0-inf) / Cmax / MRT last / MRT inf / half-life / Tmax / Tsec (time of the secondary peak in C–T curve) / Csec (drug concentration of the secondary peak in C–T curve): rat plasma; for AUC(0-t) / AUC(0-inf) / Cmax / MRT last / MRT inf / half-life / Csec (drug concentration of the secondary peak in C–T curve): mean ± SD, n = 6; for AUC(0-t): read-out: AUC0→t; for AUC(0-inf): read-out: AUC0→∞; for Cmax: read-out: Cmax; for MRT last: read-out: MRT0→t (converted); for MRT inf: read-out: MRT0→∞ (converted); for half-life: read-out: t1/2; for Tmax: read-out: Tmax (converted)
Procedure: The time schedule included 15 time-points and six rats were sampled at each time-point. All the rats were orally administered with ZJ extract (suspended in water) at a dose of 3.38 g/kg body weight (dosages of the 12 alkaloids were shown in Table S4), equivalent to crude drug dose of 12 g/kg body weight. Blood samples were collected from the suborbital vein of the rats at 10, 20, 30, 60, 90, 120, 180, 240, 300, 330, 360, 480, 720, 1440, 2160 min after administration, and centrifuged immediately at 5000 rpm for 10 min. The plasma samples were stored at −20 °C until analysis.
Similarly, the time schedule of other rats included 15 time-points and six rats were orally administered with FZJ extract at a dose of 3.76 g/kg body weight (also equivalent to crude drug dose of 12 g/kg body weight, Table S4). Blood samples were collected and treated as mentioned above in the PK study of ZJ extract.
PK parameters of the 12 alkaloids including AUC0→t, AUC0→∞, mean retention time (MRT0→t, MRT0→∞), and elimination half-life (t1/2) were calculated with non-compartmental method by DAS 2.0 software (Mathematical Pharmacology Professional Committee of China, Shanghai, China). Maximum plasma drug concentration (Cmax) and time to reach the maximum plasma drug concentration (Tmax) were observed directly from the detected C–T data. The results were expressed as arithmetic mean ± standard deviation (SD).

[4] = Two-compartment model fitting of C–T curves (DAS 2.0); type: in vivo, rat
Description: Double peaks in C–T curves were observed repeatedly in the PK study of ZJ and related TCM prescriptions, but explanations to the phenomenon were still ambiguous. Generally, possible reasons for the double peak phenomenon could be summarized as follows: (a) enterohepatic circulation; […] (c) irregular pattern of gastric emptying. […] Moreover, Tmax of the alkaloids after administration of ZJ extract were deferred from that of FZJ administration. […] It probably play a major role in the double peak phenomenon, since the GI motility can affect the drug absorption.

Stability RE, 3 freeze-thaw cycles ([1]; high QC concentration) [%]	Stability RE, 30 days at −20 °C ([1]; high QC concentration) [%]	Stability RE, 3 freeze-thaw cycles ([1]; low QC concentration) [%]	Stability RE, 30 days at −20 °C ([1]; low QC concentration) [%]	Stability RE, 3 freeze-thaw cycles ([1]; medium QC concentration) [%]	Stability RE, 30 days at −20 °C ([1]; medium QC concentration) [%]	Stability RE, processed samples' stability ([1]; high QC concentration) [%]	Stability RE, processed samples' stability ([1]; low QC concentration) [%]	Stability RE, processed samples' stability ([1]; medium QC concentration) [%]	AUC0→∞/D (ratio of AUC0→∞ and dose) ([2]; oral ZJ extract)	Cmax/D (ratio of Cmax and dose) ([2]; oral ZJ extract)	AUC(0-t) ([3]; 3.38 g/kg, oral ZJ extract) [ng·h/mL]	AUC(0-inf) ([3]; 3.38 g/kg, oral ZJ extract) [ng·h/mL]	Cmax ([3]; 3.38 g/kg, oral ZJ extract) [ng/mL]	MRT last ([3]; 3.38 g/kg, oral ZJ extract) [h]	MRT inf ([3]; 3.38 g/kg, oral ZJ extract) [h]	half-life ([3]; 3.38 g/kg, oral ZJ extract) [h]	Tmax ([3]; 3.38 g/kg, oral ZJ extract) [h]	Tsec (time of the secondary peak in C–T curve) ([3]; oral ZJ extract) [min]	Csec (drug concentration of the secondary peak in C–T curve) ([3]; oral ZJ extract) [ng/mL]	Structure (SMILES)	further results
−12.48	−14.51	6.73	6.72	7.48	9.66	10.05	−3.71	10.68	44.44	3.98	24.7 ± 3.9	27 ± 2.23	2.46 ± 1.17	10.1	13.5	8.93 ± 2.65	5	90	2.42 ± 0.89	O=c1c2c3c(ccc2cc2n1CCc1cc4c(cc1-2)OCO4)OCO3 [8-oxocoptisine]	plasma concentrations at most time points ([3]; oral FZJ extract): below the LLOQ
−12.84	−6.2	−3.64	13.92	−6.12	−13.86	−10.77	2.78	−8.85	0.62	0.12	68.5 ± 15.9	69.6 ± 15.5	13.7 ± 7.05	10.8	11.6	6.11 ± 1.7	5	90	5.51 ± 2.17	COc1cc2c(cc1OC)-c1cc3ccc4c(c3c[n+]1CC2)OCO4 [epiberberine]	AUC0→∞/D (ratio of AUC0→∞ and dose) ([2]; oral FZJ extract): 1.91; Cmax/D (ratio of Cmax and dose) ([2]; oral FZJ extract): 0.81; AUC(0-t) ([3]; 3.76 g/kg, oral FZJ extract): 10.1 ± 1.09 ng·h/mL; AUC(0-inf) ([3]; 3.76 g/kg, oral FZJ extract): 11.4 ± 1.27 ng·h/mL; Cmax ([3]; 3.76 g/kg, oral FZJ extract): 4.82 ± 1.97 ng/mL; MRT last ([3]; 3.76 g/kg, oral FZJ extract): 3.89 h; MRT inf ([3]; 3.76 g/kg, oral FZJ extract): 5.26 h; half-life ([3]; 3.76 g/kg, oral FZJ extract): 3.92 ± 1.69 h; Tmax ([3]; 3.76 g/kg, oral FZJ extract): 3 h
−2.29	−2.68	−1.98	15.65	3.89	−11.86	−10.59	13.85	−6.31	1688.21	369.29	45.1 ± 7.46	47.3 ± 7.36	10.3 ± 5.45	6.72	8.55	9.92 ± 2.06	1.5	300	9.03 ± 4.31	COc1cc2c(cc1OC)C(=O)NCC2 [corydaldine]	AUC0→∞/D (ratio of AUC0→∞ and dose) ([2]; oral FZJ extract): 310.00; Cmax/D (ratio of Cmax and dose) ([2]; oral FZJ extract): 173.00; AIC (Akaike's information criterion method), two-compartment model fitting ([4]; oral FZJ extract): 3.947 ± 8.187; r^2 (correlation coefficient method), two-compartment model fitting ([4]; oral FZJ extract): 0.805 ± 0.066; AIC (Akaike's information criterion method), two-compartment model fitting ([4]; oral ZJ extract): 85.431 ± 9.718; r^2 (correlation coefficient method), two-compartment model fitting ([4]; oral ZJ extract): 0.243 ± 0.267; AUC(0-t) ([3]; 3.76 g/kg, oral FZJ extract): 2.86 ± 0.35 ng·h/mL; AUC(0-inf) ([3]; 3.76 g/kg, oral FZJ extract): 3.1 ± 0.46 ng·h/mL; Cmax ([3]; 3.76 g/kg, oral FZJ extract): 1.73 ± 0.58 ng/mL; MRT last ([3]; 3.76 g/kg, oral FZJ extract): 2.85 h; MRT inf ([3]; 3.76 g/kg, oral FZJ extract): 3.99 h; half-life ([3]; 3.76 g/kg, oral FZJ extract): 3.89 ± 1.29 h; Tmax ([3]; 3.76 g/kg, oral FZJ extract): 0.5 h
